EC50 data for 15 compounds are collected here from US10407445B2, “Hepatitis C virus inhibitors” (ENANTA PHARMACEUTICALS, INC., priority 2013, dated 2019).

Structures are written as SMILES. pEC50: −log10 of the molar value.

Common to all, as to format: cell-based
In test [1] the test system is HCV GT 1b replicon. Briefly: HCV replicon assay, stable GT 1b replicon (Renilla luciferase). Particulars: Hepatitis C virus, GT1B, 72 h. The procedure, abridged: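 Stable Huh-7.5-based GT1b replicon (Con1-derived) carrying hRluc-Neo, 4000 cells/well seeded onto a sixteen-point half-log compound series in G418-free, phenol red-free medium. After 72 h, Renilla luciferase is read relative to DMSO controls; CC50 in the same cells by CellTiter-Glo.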
A general note: A replicon is a self-replicating genome or part of one, used to study replication in cells.

The test system of test [2] is HCV GT 2a-J6 replicon. The test can be described thus: HCV replicon assay, GT2a chimeric replicon expressing NS5A from GT2a strain J6. Particulars: Hepatitis C virus, 72 h, read-out: EC50 2a J6. A digest of the protocol:
(§1)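 Stable Huh-7.5 lines carried JFH-1 subgenomic replicons with hRluc-Neo reporter, in which NS5A was swapped for GT3a strain S52 or GT2a strain J6 NS5A. Renilla luciferase was read after 72 h relative to DMSO controls.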

The subject of test [3] is HCV GT 3a replicon. Briefly: HCV replicon assay, GT2a chimeric replicon expressing NS5A from GT3a strain S52. The note with it: Hepatitis C virus, 72 h, read-out: EC50 3a. A digest of the protocol: as §1
In test [4] the test system is GT1a replicon encoding NS5A mutation M28T. The test can be described thus: Transient replication assay, GT1a replicon with NS5A mutation M28T. Particulars: Hepatitis C virus, read-out: EC50 1a M28T.
The subject of test [5] is GT1a replicon encoding NS5A mutation L31V. The test can be described thus: Transient replication assay, GT1a replicon with NS5A mutation L31V. The note with it: Hepatitis C virus, read-out: EC50 1a L31V.
Test [6] has as its system GT1a replicon encoding NS5A mutation Y93H. Briefly: Transient replication assay, GT1a replicon with NS5A mutation Y93H. Particulars: Hepatitis C virus, read-out: EC50 1a Y93H.

As for `COC(=O)N[C@H](C(=O)N1C[C@@]2(CCCOC2)C[C@H]1c1ncc(-c2ccc(-c3ccc4c(ccc5nc([C@@H]6CCCN6C(=O)[C@@H](NC(=O)OC)C(C)C)[nH]c54)c3)cc2)[nH]1)C(C)C` [Compound 27], the negative logarithm of the EC50 (pEC50) (as a rule, −log10 of the EC50, conventionally taken in molar units) is 10.66 in test [1]; 7.30 in test [2]; 6.53 in test [3]; 10.52 in test [4]; 10.00 in test [5]; 9.00 in test [6].

With `COC(=O)N[C@H](C(=O)N1C[C@]2(CCCOC2)C[C@H]1c1ncc(-c2ccc(-c3ccc4c(ccc5nc([C@@H]6CC7(CC7)CN6C(=O)[C@@H](NC(=O)OC)C(C)C)[nH]c54)c3)cc2)[nH]1)C(C)C` [Compound 28], the pEC50 in test [1] is 10.96; in test [2] it was 7.89; in test [3], 9.30; in test [4], 10.05; in test [5], 9.52; in test [6], 7.80.

As to `COC(=O)N[C@H](C(=O)N1C[C@]2(CCCOC2)C[C@H]1c1ncc(-c2ccc(-c3ccc4c(ccc5nc([C@@H]6C[C@@H]7CCCC[C@@H]7N6C(=O)[C@@H](NC(=O)OC)C(C)C)[nH]c54)c3)cc2)[nH]1)C(C)C` [Compound 29], the negative logarithm of the EC50 (pEC50) in test [1] was 11.40; in test [2], 8.70; in test [3], 9.52; in test [4] it was 10.70; in test [5] it was 10.00; in test [6] it was 8.15.

For `COC(=O)N[C@H](C(=O)N1C[C@]2(CCCOC2)C[C@H]1c1ncc(-c2ccc(-c3ccc4c(c3)OCc3nc([C@@H]5CCCN5C(=O)[C@@H](NC(=O)OC)C(C)C)[nH]c3-4)cc2)[nH]1)C(C)C` [Compound 30], the pEC50 was 10.35 in test [1]; 9.00 in test [2]; 8.70 in test [3]; 9.22 in test [4]; 9.00 in test [5]; 7.89 in test [6].

As to `COC(=O)N[C@H](C(=O)N1C[C@]2(CCCOC2)C[C@H]1c1nc2ccc3cc(-c4ccc5c(ccc6nc([C@@H]7C[C@@]8(CCCOC8)CN7C(=O)[C@@H](NC(=O)OC)C(C)C)[nH]c65)c4)ccc3c2[nH]1)C(C)C` [Compound 31], the pEC50 was 10.24 in test [1]; 9.52 in test [2]; 10.00 in test [3]; 11.15 in test [4]; 10.52 in test [5]; 9.70 in test [6].

As to `COC(=O)N[C@H](C(=O)N1C[C@]2(CCCOC2)C[C@H]1c1ncc(-c2ccc(-c3ccc(-c4cnc([C@@H]5C[C@@H]6CCCC[C@@H]6N5C(=O)[C@@H](NC(=O)OC)C(C)C)[nH]4)cc3)cc2)[nH]1)C(C)C` [Compound 32], the pEC50 in test [1] is 11.22; in test [2], 8.70; in test [3] it was 8.70; in test [4], 10.30; in test [5] it was 9.40; in test [6], 8.15.

`COC(=O)N[C@H](C(=O)N1CCC[C@H]1c1ncc(-c2ccc(-c3ccc4c(c3)OCc3nc([C@@H]5C[C@@]6(CCCOC6)CN5C(=O)[C@@H](NC(=O)OC)C(C)C)[nH]c3-4)cc2)[nH]1)C(C)C` [Compound 33]: the pEC50 is 10.42 in test [1]; 9.00 in test [2]; 9.70 in test [3]; 9.52 in test [4]; 9.52 in test [5]; 8.40 in test [6].

In the case of `COC(=O)N[C@H](C(=O)N1C[C@]2(CCCOC2)C[C@H]1c1nc2ccc3cc(-c4ccc(-c5cnc([C@@H]6C[C@@H]7COC[C@@H]7N6C(=O)[C@@H](NC(=O)OC)C(C)C)[nH]5)cc4)ccc3c2[nH]1)C(C)C` [Compound 34], the pEC50 in test [1] is 10.39; in test [2], 9.15; in test [3], 8.82; in test [4] it was 10.52; in test [5], 10.10; in test [6], 8.40.

For the compound `COC(=O)N[C@H](C(=O)N1C[C@]2(CCCOC2)C[C@H]1c1ncc(-c2ccc(-c3ccc4c(ccc5nc([C@@H]6C[C@@H]7COC[C@@H]7N6C(=O)[C@@H](NC(=O)OC)C(C)C)[nH]c54)c3)cc2)[nH]1)C(C)C` [Compound 35], the pEC50 in test [1] was 10.31; in test [2], 8.70; in test [3] it was 8.70; in test [4], 9.70; in test [5] it was 9.30; in test [6] it was 7.59.

For the compound `COC(=O)N[C@H](C(=O)N1C[C@]2(CCCOC2)C[C@H]1c1nc2ccc3cc(-c4ccc5c(ccc6nc([C@@H]7C[C@@H]8COC[C@@H]8N7C(=O)[C@@H](NC(=O)OC)C(C)C)[nH]c65)c4)ccc3c2[nH]1)C(C)C` [Compound 36], the negative logarithm of the EC50 (pEC50) is 10.29 in test [1]; 9.52 in test [2]; 9.00 in test [3]; 10.10 in test [4]; 9.70 in test [5]; 8.10 in test [6].

On to `COC(=O)N[C@H](C(=O)N1C[C@]2(CCCOC2)C[C@H]1c1ncc(-c2ccc(-c3ccc(-c4cnc([C@@H]5C[C@@H]6CCC[C@@H]6N5C(=O)[C@@H](NC(=O)OC)C(C)C)[nH]4)cc3)cc2)[nH]1)C(C)C` [Compound 37], for which the pEC50 was 11.05 in test [1]; 9.15 in test [2]; 8.52 in test [3]; 10.52 in test [4]; 9.30 in test [5]; 7.82 in test [6].

Take `COC(=O)N[C@H](C(=O)N1C[C@]2(CCCOC2)C[C@H]1c1ncc(-c2ccc(-c3ccc4c(c3)CCCc3nc([C@@H]5C[C@@H]6CCCC[C@@H]6N5C(=O)[C@@H](NC(=O)OC)C(C)C)[nH]c3-4)cc2)[nH]1)C(C)C` [Compound 40]: the pEC50 in test [1] is 11.10; in test [2] it was 7.26; in test [3], 7.36; in test [4] it was 9.22; in test [5] it was 9.00; in test [6], 8.10.

With `COC(=O)N[C@H](C(=O)N1C[C@]2(CCCOC2)C[C@H]1c1ncc(-c2ccc(-c3ccc4c(c3)OCc3nc([C@@H]5C[C@@H]6CCCC[C@@H]6N5C(=O)[C@@H](NC(=O)OC)C(C)C)[nH]c3-4)cc2)[nH]1)C(C)C` [Compound 42], the pEC50 was 11.22 in test [1]; 8.70 in test [2]; 9.00 in test [3]; 9.70 in test [4]; 9.70 in test [5]; 7.80 in test [6].

Regarding `COC(=O)N[C@H](C(=O)N1CCC[C@H]1c1ncc(-c2ccc(-c3ccc4c(ccc5nc([C@@H]6C[C@@]7(CCCOC7)CN6C(=O)[C@@H](NC(=O)OC)C(C)C)[nH]c54)c3)cc2)[nH]1)C(C)C` [Compound 44], the pEC50 in test [1] was 10.80; in test [2] it was 9.00; in test [3] it was 10.22; in test [4], 10.22; in test [5], 9.22; in test [6], 8.22.

Regarding `COC(=O)N[C@H](C(=O)N1C[C@]2(CCCOC2)C[C@H]1c1ncc(-c2ccc(-c3ccc4c(ccc5nc([C@@H]6CCCN6C(=O)[C@@H](NC(=O)OC)C(C)C)[nH]c54)c3)cc2)[nH]1)C(C)C` [Compound 47], the negative-log EC50 (pEC50) was 10.80 in test [1]; 9.22 in test [2]; 10.10 in test [3]; 9.70 in test [4]; 9.00 in test [5]; 8.10 in test [6].
